Our source for the IC50 values is patent US9255100B2 (BAYER INTELLECTUAL PROPERTY GMBH, priority 2010, dated 2016).

The assay has as its target T1, N-terminally GST-tagged human full length recombinant Mps-1 kinase (Homo sapiens, UniProt P33981).
T1 construct: N-terminally GST-tagged human full length recombinant Mps-1 kinase; purchased Invitrogen, Karslruhe, Germany PV4071
T1 sequence (P33981 1-857): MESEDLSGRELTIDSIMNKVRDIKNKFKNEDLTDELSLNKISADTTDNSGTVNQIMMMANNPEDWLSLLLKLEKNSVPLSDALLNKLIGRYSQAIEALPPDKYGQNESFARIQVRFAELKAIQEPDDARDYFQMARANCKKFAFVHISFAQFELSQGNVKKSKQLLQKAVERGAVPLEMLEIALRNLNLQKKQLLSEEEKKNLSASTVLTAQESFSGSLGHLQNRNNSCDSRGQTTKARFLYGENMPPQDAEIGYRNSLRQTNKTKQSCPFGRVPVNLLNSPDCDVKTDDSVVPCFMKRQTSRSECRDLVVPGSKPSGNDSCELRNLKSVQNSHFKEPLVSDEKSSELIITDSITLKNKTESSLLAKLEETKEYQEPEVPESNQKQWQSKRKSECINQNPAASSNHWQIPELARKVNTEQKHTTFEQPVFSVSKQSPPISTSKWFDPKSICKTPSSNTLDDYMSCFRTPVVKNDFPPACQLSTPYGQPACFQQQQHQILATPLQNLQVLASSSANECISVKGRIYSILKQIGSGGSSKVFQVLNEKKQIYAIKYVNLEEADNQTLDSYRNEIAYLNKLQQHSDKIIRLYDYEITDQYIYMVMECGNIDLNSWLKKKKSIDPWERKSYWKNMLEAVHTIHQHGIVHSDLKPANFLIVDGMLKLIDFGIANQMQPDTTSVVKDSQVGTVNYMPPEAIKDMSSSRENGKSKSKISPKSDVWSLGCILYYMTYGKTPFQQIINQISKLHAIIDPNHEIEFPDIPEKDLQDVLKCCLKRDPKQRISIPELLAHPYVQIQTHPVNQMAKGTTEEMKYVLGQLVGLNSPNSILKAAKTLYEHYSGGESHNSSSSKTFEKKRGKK
The assay can be described thus: Mps-1 kinase assay (TR-FRET). The class given is biochemical. The note with it: Mps1 IC50 [nM], 10 μM ATP, 1 μM peptide substrate, 60 min at 22° C. Summed up:
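Kinase activity of N-terminally GST-tagged full-length recombinant Mps-1, used at about 1 nM final and set within the linear range, was measured on a biotinylated peptide substrate. Phosphopeptide was detected by TR-FRET from Eu-anti-phospho(Ser/Thr) antibody to streptavidin-XLent after 1 h at 22° C.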
For orientation: Time-resolved FRET reads energy transfer from a long-lived donor to a nearby acceptor.
Turning to `Cc1cc(-c2cnc3c(NCC(C)C)cc(-c4ccn[nH]4)nn23)ccc1C(=O)NC1CC1` [Example 195, N-cyclopropyl-2-methyl-4-{8-[(2-methylpropyl)amino]-6-(1H-pyrazol-5-yl)imidazo[1,2-b]pyridazin-3-yl}benzamide], the IC50 (usually the point on the concentration scale where inhibition reaches its midpoint) stood at 3.2 nM.
Under `CSc1cc(NCC(C)C)c2ncc(-c3ccc(C(=O)NC4CC4)c(C)c3)n2n1` [Example 196, N-cyclopropyl-2-methyl-4-{8-[(2-methylpropyl)amino]-6-(methylsulfanyl)imidazo[1,2-b]pyridazin-3-yl}benzamide] stands 2.7 nM; under `Cc1cc(-c2cnc3c(NCC(C)C)cc(Sc4ccccc4)nn23)ccc1C(=O)NC1CC1` [Example 197, N-cyclopropyl-2-methyl-4-{8-[(2-methylpropyl)amino]-6-(phenylsulfanyl)imidazo[1,2-b]pyridazin-3-yl}benzamide], under 1 nM.
Regarding `Cc1cc(-c2cnc3c(NCC(C)C)cc(S(=O)(=O)c4ccccc4)nn23)ccc1C(=O)NC1CC1` [Example 198, N-cyclopropyl-2-methyl-4-{8-[(2-methylpropyl)amino]-6-(phenylsulfonyl)imidazo[1,2-b]pyridazin-3-yl}benzamide], the concentration for half-maximal inhibition (IC50) is 2.6 nM.
In the case of `Cc1cc(-c2cnc3c(NCC(C)C)cc(C(=O)NCCO)nn23)ccc1C(=O)NC1CC1` [Example 199, 3-[4-(Cyclopropylcarbamoyl)-3-methylphenyl]-N-(2-hydroxyethyl)-8-[(2-methylpropyl)amino]imidazo[1,2-b]pyridazine-6-carboxamide], the IC50 is 6.9 nM.
Then `CCCSc1cc(NCC(C)C)c2ncc(-c3ccc(C(=O)NC4CC4)c(C)c3)n2n1` [Example 201, N-cyclopropyl-2-methyl-4-{8-[(2-methylpropyl)amino]-6-(propylsulfanyl)imidazo[1,2-b]pyridazin-3-yl}benzamide], with 2.3 nM; and `Cc1cc(-c2cnc3c(NCC(C)C)cc(-c4ccnn4C)nn23)ccc1C(=O)NC1CC1` [Example 202, N-cyclopropyl-2-methyl-4-{8-[(2-methylpropyl)amino]-6-(1-methyl-1H-pyrazol-5-yl)imidazo[1,2-b]pyridazin-3-yl}benzamide], with 1.5 nM; and `CSc1cc(NCCC(F)(F)F)c2ncc(-c3ccc(C(=O)NC4CC4)c(C)c3)n2n1` [Example 203, N-cyclopropyl-2-methyl-4-{6-(methylsulfanyl)-8-[(3,3,3-trifluoropropyl)amino]imidazo[1,2-b]pyridazin-3-yl}benzamide], with 1.4 nM.
Then `Cc1cc(-c2cnc3c(NCCC(F)(F)F)cc(SCCO)nn23)ccc1C(=O)NC1CC1` [Example 204, N-cyclopropyl-4-{6-[(2-hydroxyethyl)sulfanyl]-8-[(3,3,3-trifluoropropyl)amino]imidazo[1,2-b]pyridazin-3-yl}-2-methylbenzamide], with under 1 nM.
Under `Cc1cc(-c2cnc3c(NCCC(F)(F)F)cc(Sc4ccccc4)nn23)ccc1C(=O)NC1CC1` [Example 207, N-cyclopropyl-2-methyl-4-{6-(phenylsulfanyl)-8-[(3,3,3-trifluoropropyl)amino]imidazo[1,2-b]pyridazin-3-yl}benzamide] stands under 1 nM; under `Cc1cc(-c2cnc3c(NCCC(F)(F)F)cc(Sc4cccc(F)c4)nn23)ccc1C(=O)NC1CC1` [Example 209, N-cyclopropyl-4-{6-[(3-fluorophenyl)sulfanyl]-8-[(3,3,3-trifluoropropyl)amino]imidazo[1,2-b]pyridazin-3-yl}-2-methylbenzamide], 0.6 nM.
In the case of `CCN(CC)CCSc1cc(NCCC(F)(F)F)c2ncc(-c3ccc(C(=O)NC4CC4)c(C)c3)n2n1` [Example 210, N-cyclopropyl-4-(6-{[2-(diethylamino)ethyl]sulfanyl}-8-[(3,3,3-trifluoropropyl)amino]imidazo[1,2-b]pyridazin-3-yl)-2-methylbenzamide], the IC50 stood at 6.9 nM.
Take `Cc1cc(-c2cnc3c(NCCCO)cc(-c4ccnn4C)nn23)ccc1C(=O)NC1CC1` [Example 211, N-cyclopropyl-4-{8-[(3-hydroxypropyl)amino]-6-(1-methyl-1H-pyrazol-5-yl)imidazo[1,2-b]pyridazin-3-yl}-2-methylbenzamide]: the concentration for half-maximal inhibition (IC50) is 5.8 nM.
For the compound `Cc1cc(-c2cnc3c(NCCC(F)(F)F)cc(S(=O)(=O)c4ccccc4)nn23)ccc1C(=O)NC1CC1` [Example 212, N-cyclopropyl-2-methyl-4-{6-(phenylsulfonyl)-8-[(3,3,3-trifluoropropyl)amino]imidazo[1,2-b]pyridazin-3-yl}benzamide], the IC50 is under 1 nM.
Under `Cc1cc(-c2cnc3c(NCC(C)C)cc(-c4cncc(C#N)c4)nn23)ccc1C(=O)NC1CC1` [Example 213, 4-{6-(5-Cyanopyridin-3-yl)-8-(isobutylamino)imidazo[1,2-b]pyridazin-3-yl}-N-cyclopropyl-2-methylbenzamide] stands under 1 nM; under `Cc1cc(-c2cnc3c(NCC(C)(C)O)cc(Sc4ccccc4)nn23)ccc1C(=O)NC1CC1` [Example 214, N-cyclopropyl-4-{8-[(2-hydroxy-2-methylpropyl)amino]-6-(phenylsulfanyl)imidazo[1,2-b]pyridazin-3-yl}-2-methylbenzamide], under 1 nM; under `Cc1cc(-c2cnc3c(NCCC(F)(F)F)cc(SCCN4CCOCC4)nn23)ccc1C(=O)NC1CC1` [Example 215, N-cyclopropyl-2-methyl-4-(6-{[2-(morpholin-4-yl)ethyl]sulfanyl}-8-[(3,3,3-trifluoropropyl)amino]imidazo[1,2-b]pyridazin-3-yl)benzamide], 1.7 nM.
For the compound `Cc1cc(-c2cnc3c(NCC(C)(C)O)cc(SCCC(C)(C)C)nn23)ccc1C(=O)NC1CC1` [Example 217, N-cyclopropyl-4-{6-[(3,3-dimethylbutyl)sulfanyl]-8-[(2-hydroxy-2-methylpropyl)amino]imidazo[1,2-b]pyridazin-3-yl}-2-methylbenzamide], the IC50 was determined as 3.6 nM.
Then `Cc1cc(-c2cnc3c(NCC(C)(C)O)cc(Sc4c(F)cccc4F)nn23)ccc1C(=O)NC1CC1` [Example 218, N-cyclopropyl-4-{6-[(2,6-difluorophenyl)sulfanyl]-8-[(2-hydroxy-2-methylpropyl)amino]imidazo[1,2-b]pyridazin-3-yl}-2-methylbenzamide], with 3.7 nM; and `C/C=C(\C)c1cc(NCCC(F)(F)F)c2ncc(-c3ccc(C(=O)NC4CC4)c(C)c3)n2n1` [Example 221, 4-{6-[(2E)-but-2-en-2-yl]-8-[(3,3,3-trifluoropropyl)amino]imidazo[1,2-b]pyridazin-3-yl}-N-cyclopropyl-2-methylbenzamide], with 1.2 nM.
Under `Cc1cc(-c2cnc3c(NCC(C)(C)O)cc(-c4ccccc4CF)nn23)ccc1C(=O)NC1CC1` [Example 222, N-cyclopropyl-4-{6-[2-(fluoromethyl)phenyl]-8-[(2-hydroxy-2-methylpropyl)amino]imidazo[1,2-b]pyridazin-3-yl}-2-methylbenzamide] stands 2.1 nM; under `COc1ccccc1Oc1cc(NCCC(F)(F)F)c2ncc(-c3ccc(C(=O)NC4CC4)c(C)c3)n2n1` [Example 223, N-cyclopropyl-4-{6-(2-methoxyphenoxy)-8-[(3,3,3-trifluoropropyl)amino]imidazo[1,2-b]pyridazin-3-yl}-2-methylbenzamide], 0.2 nM.
Under `Cc1cc(-c2cnc3c(NCCC(F)(F)F)cc(Sc4ccccc4O)nn23)ccc1C(=O)NC1CC1` [Example 224, N-cyclopropyl-4-{6-[(2-hydroxyphenyl)sulfanyl]-8-[(3,3,3-trifluoropropyl)amino]imidazo[1,2-b]pyridazin-3-yl}-2-methylbenzamide] stands under 0.1 nM.
With `COc1cccc(Oc2cc(NCCC(F)(F)F)c3ncc(-c4ccc(C(=O)NC5CC5)c(C)c4)n3n2)c1` [Example 225, N-cyclopropyl-4-{6-(3-methoxyphenoxy)-8-[(3,3,3-trifluoropropyl)amino]imidazo[1,2-b]pyridazin-3-yl}-2-methylbenzamide], the IC50 was 0.2 nM.
Under `Cc1cc(-c2cnc3c(NCCC(F)(F)F)cc(SCCC(C)(C)C)nn23)ccc1C(=O)NC1CC1` [Example 226, N-cyclopropyl-4-{6-[(3,3-dimethylbutyl)sulfanyl]-8-[(3,3,3-trifluoropropyl)amino]imidazo[1,2-b]pyridazin-3-yl}-2-methylbenzamide] stands 1.3 nM; under `COc1ccc(Sc2cc(NCCC(F)(F)F)c3ncc(-c4ccc(C(=O)NC5CC5)c(C)c4)n3n2)cc1` [Example 227, N-cyclopropyl-4-{6-[(4-methoxyphenyl)sulfanyl]-8-[(3,3,3-trifluoropropyl)amino]imidazo[1,2-b]pyridazin-3-yl}-2-methylbenzamide], 0.2 nM.
